Laboratory results: patent US20240180880A1, “METHODS OF USING EHMT2 INHIBITORS IN TREATING OR PREVENTING BLOOD DISORDERS” (Epizyme, Inc., priority 2017, published 2024)

How the values were obtained:
Type in all cases: cell-based
Various cell lines [1] = assay: Pretreatment model (7+3 or 7+7) combination proliferation assay, cellular ATP luminescence, Loewe synergy; settings: several cell lines
Various cell lines [2] = assay: Cotreatment model (7-day) combination proliferation assay, cellular ATP luminescence, Loewe synergy; settings: several cell lines, Compound 205 and DNA hypomethylating agents, 7-day cotreatment models (FIG. 1D)
Method: Cells were incubated for seven days under humidified atmosphere of 5% CO2 at 37° C. The final concentration of DMSO (vehicle) in the assay was 0.1% v/v. Quantification of proliferation through measurement of cellular adenosine triphosphate (ATP) was performed via a luminescent cell viability assay. Plates were read in a plate reader with luminescence module. Quantification of synergy was performed using the Loewe Additivity model and calculating the Loewe Volume (V Loewe) with the Chalice Software (Horizon) and dose response curves and IC50 vs concentration plots were generated with Graphpad Prism software.

[3] = test system: Human CD34+ progenitor cells; assay: Human CD34+ progenitors assay for fetal hemoglobin induction, % HbF+ cells by FACS (healthy donors); settings: for % HbF+ cells: 26% basal level
From the text: (§1) An in-vitro system to test the ability of compound to induce fetal hemoglobin expression was developed. This system used Human CD34+ progenitor cells freshly isolated from healthy donors blood collections. Peripheral blood mononuclear cells (PBMCs) were isolated from whole blood by density gradient centrifugation using SepMatem-50 and Lymphoprep™ from Stem Cell Technologies. CD34^+ hematopoietic progenitor cells (HSPCs) were isolated from PBMCs by magnetic separation using Stem Cells Technologies CD34+ positive selection/isolation kit (Stem Cell Technologies, #18056). CD34 cells were cultured using a 2-phase 14 day culture system. During phase 1 (day 0 to day 7) cells were expanded. Expansion was followed by phase 2 (day 7 to day 14) where cells were differentiated toward the erythroid lineage. Compounds were added on day 1 and day 7 as 1000× stock after being diluted in dimethyl sulfoxide (DMSO) in a 3-fold series. Final DMSO concentration in the assay was 0.1%. At day 14 cells were harvested for Fluorescent Activated Cell Sorting (FACS) analysis and for HbF quantitation by Mass spectrometry. For cell surface and intracellular marker analysis by FACS, cells were fixed and stained with a cocktail of antibodies covering erythroid lineage markers, HbF and H3 and H3K9me2 (Table 11). Data was collected using Canto II flow cytometer (BD Biosciences) and the FACSDiva software. Data was analyzed using FlowJo software. % HbF^+ cells and ratios H3/H3K9me2 intensities were calculated for CD71^+/CD235a^+ gated populations.
A list of pharmacological agents was evaluated for their potential to induce fetal Hemoglobin (HbF) in order to identify combination partners for our EHMT1/2 inhibitors. HbF can be induced by toxicity; therefore, the potential of the agents to induce HbF were evaluated in the context of cell viability. (Table 12). The EHMT1/2 inhibitor Compound 205 was evaluated in combination with a fixed dose of 10 μM Hydroxyurea and 0.1 μM Pomalidomide. […] 10 μM Hydroxyurea as a single agent was able to induce 01% HbF^+ cells from 26% basal level to 45% while 0.016 μM compound 205 as a single agent induced to 45%. In combination these two agents were able to induced % HbF^+ to 63% (FIG. 3A). […] 0.1 μM Pomalidomide as a single agent was able to induce ° % HbF cells from 26% basal level to 48% while 0.016 μM compound 205 as a single agent induced to 45%. In combination these two agents were able to induce % HbF^+ to 78% (FIG. 3B).
Hydroxyurea was also evaluated as single agent and in combination with the EHMT1/2 inhibitor compound 205 in a matrix format using CD34^+ cells isolated from a pool of 5 healthy donors. […] (FIG. 4 and FIG. 5, respectively). It is noted that for Loewe excess determination in Chalice, data was normalized to the highest and lowest Hbγ induction observed under the conditions and dose ranges in the assay.

[4] = test system: Human CD34+ progenitor cells; assay: Human CD34+ progenitors assay, HbF (Hbγ) quantitation by mass spectrometry; settings: compound 205 with Hydroxyurea, matrix format, CD34+ cells from a pool of 5 healthy donors; Loewe excess in Chalice
From the text: as §1, with “Final DMSO concentration in the assay was 0.1%.” left out, “For cell surface and intracellular marker analysis by FACS, cells were fixed and stained with a cocktail of antibodies covering erythroid lineage markers, HbF and H3 and H3K9me2 (Table 11). Data was collected using Canto II flow cytometer (BD Biosciences) and the FACSDiva software.” left out
Hydroxyurea was also evaluated as single agent and in combination with the EHMT1/2 inhibitor compound 205 in a matrix format using CD34^+ cells isolated from a pool of 5 healthy donors. […]

[5] = test system: Human CD34+ progenitor cells; assay: Cell viability in the human CD34+ progenitors HbF induction assay
From the text: An in-vitro system to test the ability of compound to induce fetal hemoglobin expression was developed. This system used Human CD34+ progenitor cells freshly isolated from healthy donors blood collections. Peripheral blood mononuclear cells (PBMCs) were isolated from whole blood by density gradient centrifugation using SepMatem-50 and Lymphoprep™ from Stem Cell Technologies. CD34^+ hematopoietic progenitor cells (HSPCs) were isolated from PBMCs by magnetic separation using Stem Cells Technologies CD34+ positive selection/isolation kit (Stem Cell Technologies, #18056). CD34 cells were cultured using a 2-phase 14 day culture system. During phase 1 (day 0 to day 7) cells were expanded. […] At day 14 cells were harvested for Fluorescent Activated Cell Sorting (FACS) analysis and for HbF quantitation by Mass spectrometry. […] Data was analyzed using FlowJo software. % HbF^+ cells and ratios H3/H3K9me2 intensities were calculated for CD71^+/CD235a^+ gated populations.
A list of pharmacological agents was evaluated for their potential to induce fetal Hemoglobin (HbF) in order to identify combination partners for our EHMT1/2 inhibitors. HbF can be induced by toxicity; therefore, the potential of the agents to induce HbF were evaluated in the context of cell viability. […] The EHMT1/2 inhibitor Compound 205 was evaluated in combination with a fixed dose of 10 μM Hydroxyurea and 0.1 μM Pomalidomide. […]

[6] = 0.016 μM compound 205 in combination with 0.1 μM Pomalidomide
[7] = 0.016 μM compound 205 in combination with 10 μM Hydroxyurea

`CNc1cc(C)nc(Nc2ccc(OC)c(OCCCN3CCCC3)c2)n1` [Compound 205] was tested, and the “combination effect on proliferation (Loewe)” value (“combination effect … (Loewe)” below) (Various cell lines [1]; Compound 205 and ATRA (FIG. 1B)) was “synergy”, the “combination effect … (Loewe)” value (Various cell lines [1]; Compound 205 and Venetoclax (FIG. 1C)) was “synergy” and the “combination effect … (Loewe)” value (Various cell lines [2]) was “synergy”. For the same molecule, the “% HbF+ cells” value ([3]; 0.016 μM compound 205 as a single agent) was 45%, the “% HbF+ cells” value [3, 6] was 78% and the “% HbF+ cells” value [3, 7] was 63%. For the same molecule, the “combination effect on % HbF+ cells (FACS analysis)” value ([3]; compound 205 with Hydroxyurea, matrix format, CD34+ cells from a pool of 5 healthy donors) was “synergistically”, the “combination effect on Hbγ protein expression (MS quantification)” value [4] was “synergistically” and the cell viability [5, 6] was greater than 90%. The cell viability [5, 7] was greater than 90%.
